Results taken from publication PMC9809337, “Discovery of HCD3514 as a potent EGFR inhibitor against C797S mutation in vitro and in vivo” (Journal of Cancer, 2023).
Like-named read-outs stand apart in the source and are kept apart here.

Columns and labels:
PC-9-OR cells [1] = experiment: Cell proliferation assay (CCK8/SRB); conditions: PC9-OR, 72 h, read-out: IC50, antiproliferation activity
[2] = test system: BaF3-EGFR^19del/T790M cells; experiment: Cell proliferation assay (CCK8/SRB); conditions: 72 h, read-out: IC50, antiproliferation activity
NCI-H1975 cells = experiment: Cell proliferation assay (CCK8/SRB); conditions: Homo sapiens, NCI-H1975, 72 h, read-out: IC50, antiproliferation activity
BaF3 parental cells = experiment: Cell proliferation assay (CCK8/SRB); conditions: Mus musculus, BaF3, 72 h, read-out: IC50, antiproliferation activity
[3] = test system: BaF3-EGFR^19del/T790M/C797S cells; experiment: Cell proliferation assay (CCK8/SRB); conditions: 72 h, read-out: IC50, antiproliferation activity
[4] = test system: BaF3-EGFR^L858R/T790M/C797S cells; experiment: Cell proliferation assay (CCK8/SRB); conditions: Ba/F3 EGFR-L858R, 72 h, read-out: IC50, antiproliferation activity
[5] = test system: BaF3-EGFR^L858R/T790M cells; experiment: Cell proliferation assay (CCK8/SRB); conditions: Ba/F3 EGFR-L858R, 72 h, read-out: IC50, antiproliferation activity
[6] = test system: EGFR phosphorylation in triple mutant BaF3 cells and PC-9-OR cells; experiment: Western blot of EGFR phosphorylation in EGFR^C797S triple mutant cells; assay type: cell-based; conditions: treated 2 h
[7] = test system: BaF3-EGFR^19del/T790M/C797S mouse xenograft tumors; assay type: in vivo; conditions: for phosphorylation of EGFR and Erk in tumors (Western blot): tumor tissues collected 2 h after last treatment
Experimental: Western blotting was performed as described previously. Cells were collected by trypsin and then lysed with SDS lysis buffer. Tumor tissues were homogenized in RIPA buffer on ice, followed by centrifugation at 12,000 x g for 30 min.
Mice were sacrificed and tumors were harvested for Western blot analysis. All animal study was approved by the Institutional Animal Care and Use Committee of the Shanghai Institute of Materia Medica and strictly performed according to the institutional ethical guidelines on animal care.

PC-9-OR cells [8] = experiment: Cell apoptosis analysis (Annexin V-FITC, flow cytometry); assay type: cell-based; conditions: 3 μM, 48 h
Experimental: (§1) Then cells were collected and washed with PBS and measured by Annexin V-FITC Apoptosis detection kit (cat. no. A211-02, Vazyme Biotechnology). Signals were measured using FACS Calibur flow cytometer, and FlowJo software was used to analyze the data.

[9] = test system: BaF3-EGFR^19del/T790M/C797S cells; experiment: as above; assay type: cell-based; conditions: 3 μM, 48 h
Experimental: as §1

[10] = test system: BaF3-EGFR^L858R/T790M/C797S cells; experiment: as above; assay type: cell-based; conditions: 48 h
Experimental: as §1

GSE-1 cells = experiment: Cell proliferation assay (CCK8/SRB); conditions: Homo sapiens, 72 h, read-out: IC50, antiproliferative activity
EGFR^L858R/T790M = EGFR^L858R/T790M (Homo sapiens, UniProt P00533, L858R/T790M); experiment: In vitro kinase assay (ELISA); assay type: biochemical; conditions: mean ± SD of three independent experiments, read-out: IC50, kinase inhibitory activity against EGFR^L858R/T790M
Chain of EGFR^L858R/T790M (P00533 712-979 T790M/L858R limits assumed): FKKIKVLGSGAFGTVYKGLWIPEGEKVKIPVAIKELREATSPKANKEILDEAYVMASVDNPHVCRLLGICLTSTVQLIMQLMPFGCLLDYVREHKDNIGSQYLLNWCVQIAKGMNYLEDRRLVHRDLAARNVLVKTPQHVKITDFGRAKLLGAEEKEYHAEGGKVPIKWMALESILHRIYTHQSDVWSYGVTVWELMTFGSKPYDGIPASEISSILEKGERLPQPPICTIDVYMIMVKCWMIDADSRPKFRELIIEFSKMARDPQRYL

EGFR^19del/T790M/C797S = EGFR^19del/T790M/C797S (Homo sapiens, UniProt P00533, C797S/DEL746-750/T790M); experiment: In vitro kinase assay (ELISA); assay type: biochemical; conditions: mean ± SD of three independent experiments, read-out: IC50, kinase inhibitory activity against EGFR^19del/T790M/C797S
Chain of EGFR^19del/T790M/C797S (P00533 with tags, fused parts or gaps DEL746-750/T790M/C797S limits assumed): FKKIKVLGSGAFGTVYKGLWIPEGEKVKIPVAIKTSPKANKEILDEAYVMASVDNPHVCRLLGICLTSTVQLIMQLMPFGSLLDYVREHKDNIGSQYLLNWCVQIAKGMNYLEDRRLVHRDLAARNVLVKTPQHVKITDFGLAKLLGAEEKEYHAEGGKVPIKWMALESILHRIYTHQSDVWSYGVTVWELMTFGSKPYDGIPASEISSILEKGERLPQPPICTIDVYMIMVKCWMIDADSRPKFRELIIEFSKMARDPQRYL

EGFR^WT [11] = experiment: In vitro kinase assay (ELISA); conditions: EGFR^C797S triple mutants versus EGFR^WT, kinase IC50
EGFR^WT [12] = target: EGFR^WT (Homo sapiens, UniProt P00533); experiment: In vitro kinase assay (ELISA)
Chain of EGFR^WT (Homo sapiens, UniProt P00533) (P00533 712-979 limits assumed): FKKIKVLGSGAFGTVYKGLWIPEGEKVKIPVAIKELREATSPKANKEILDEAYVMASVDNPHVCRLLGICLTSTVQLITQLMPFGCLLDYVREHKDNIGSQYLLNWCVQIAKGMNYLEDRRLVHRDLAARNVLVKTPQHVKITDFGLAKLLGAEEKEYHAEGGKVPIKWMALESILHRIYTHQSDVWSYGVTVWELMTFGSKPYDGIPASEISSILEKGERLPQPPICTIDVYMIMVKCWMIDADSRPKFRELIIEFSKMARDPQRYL

EGFR^L858R/T790M/C797S = EGFR^L858R/T790M/C797S (Homo sapiens, UniProt P00533, C797S/L858R/T790M); experiment: In vitro kinase assay (ELISA); assay type: biochemical; conditions: mean ± SD of three independent experiments, read-out: IC50, kinase inhibitory activity against EGFR^L858R/T790M/C797S
Chain of EGFR^L858R/T790M/C797S (P00533 712-979 T790M/C797S/L858R limits assumed): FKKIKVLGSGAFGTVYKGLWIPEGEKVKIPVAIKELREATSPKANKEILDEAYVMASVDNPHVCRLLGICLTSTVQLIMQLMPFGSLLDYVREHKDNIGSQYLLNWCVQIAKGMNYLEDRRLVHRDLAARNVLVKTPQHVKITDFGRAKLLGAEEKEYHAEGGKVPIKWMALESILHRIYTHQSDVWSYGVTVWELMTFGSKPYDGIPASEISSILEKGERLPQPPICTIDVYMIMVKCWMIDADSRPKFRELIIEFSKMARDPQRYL

[13] = test system: EGFR phosphorylation in BaF3-EGFR^L858R/T790M, BaF3-EGFR^19del/T790M and NCI-H1975 cells; experiment: Western blot of EGFR phosphorylation in EGFR^T790M double mutant cells; assay type: cell-based; conditions: treated 2 h
Experimental: (§2) Western blotting was performed as described previously. Cells were collected by trypsin and then lysed with SDS lysis buffer. Tumor tissues were homogenized in RIPA buffer on ice, followed by centrifugation at 12,000 x g for 30 min. The concentration of protein was measured with BCA protein assay kit (cat. no. 23227, Thermo Fisher Scientific). After heating at 100 °C for 15 min, protein samples were separated on 8-12% SDS-PAGE gels, and then transferred to nitrocellulose membranes (Life Technologies). Membranes were blocked in 5% nonfat milk-TBST and immunoblotted with primary antibodies against phospho-EGFR (Tyr1068; dilution, 1:500; cat. no. 2234L, CST), EGFR (dilution, 1:1000; cat. no. 4267S, CST), PARP (dilution, 1:1000; cat. no. 9542S, CST), caspase-3 (dilution, 1:1000; cat. no. 9662S, CST), cleaved caspase-3 (dilution, 1:1000; cat. no. 9664S, CST), phospho-Erk (Thr202/Tyr204; dilution, 1:1000; cat. no. 4370S, CST), Erk (dilution, 1:1000; cat. no. 4695S, CST) and β-actin (dilution, 1:20000; cat. no. 60008-1-Ig, Proteintech) at 4 °C overnight and then incubated with secondary antibodies (cat. no. 111-035-003, Jackson).

EGFR^19del/T790M = EGFR^19del/T790M (Homo sapiens, UniProt P00533, DEL746-750/T790M); experiment: In vitro kinase assay (ELISA); assay type: biochemical; conditions: mean ± SD of three independent experiments, read-out: IC50, kinase inhibitory activity against EGFR^19del/T790M
Chain of EGFR^19del/T790M (P00533 with tags, fused parts or gaps DEL746-750/T790M limits assumed): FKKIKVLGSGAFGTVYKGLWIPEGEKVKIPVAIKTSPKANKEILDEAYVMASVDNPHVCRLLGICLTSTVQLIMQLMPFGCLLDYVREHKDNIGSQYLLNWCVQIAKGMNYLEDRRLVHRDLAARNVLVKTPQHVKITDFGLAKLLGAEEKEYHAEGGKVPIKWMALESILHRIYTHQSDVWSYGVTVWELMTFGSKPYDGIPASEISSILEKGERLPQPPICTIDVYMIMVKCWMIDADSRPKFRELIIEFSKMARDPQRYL

MRC-9 cells = experiment: Cell proliferation assay (CCK8/SRB); conditions: Homo sapiens, MRC9, 72 h, read-out: IC50, antiproliferative activity
[14] = test system: cleaved caspase-3 and cleaved PARP in triple mutant BaF3 and PC-9-OR cells; experiment: Western blot of apoptosis-related proteins; assay type: cell-based
Experimental: as §2

[15] = triple mutant BaF3 cells and PC-9-OR cells

Compound | IC50 (PC-9-OR cells [1]) | IC50 [2] | IC50 (NCI-H1975 cells) | IC50 (BaF3 parental cells) | IC50 [3] | IC50 [4] | IC50 [5] | phosphorylation of EGFR and Erk in tumors (Western blot) [7] | apoptosis rate ([10]; 3 μM) | EGFR phosphorylation (Western blot) [6, 15] | other results
C=CC(=O)Nc1cc(Nc2nccc(-c3cn(C)c4ccccc34)n2)c(OC)cc1N(C)CCN(C)C [AZD9291, Osimertinib, reference compound] | 6300 nM | […] | […] | 3520 ± 920 nM | 5930 ± 780 nM | 5500 ± 330 nM | […] | no obvious inhibitory activities of EGFR and Erk | – | – | EGFR phosphorylation (Western blot) ([6]; 1 μM, all three EGFR^C797S triple mutant cells): failed to suppress; reduction of tumor growth compared to vehicle ([7]; 25 mg/kg, oral, once a day, BALB/c nude mice): did not show significant reduction of tumor growth
COc1cc(N2CCC(N3CCN(C)CC3)CC2)ccc1Nc1ncc(Cl)c(Nc2ccccc2P(C)(C)=O)n1 [brigatinib] | 400 nM | – | – | 4720 ± 2150 nM | 310 ± 90 nM | 610 ± 210 nM | – | – | around 80% | significantly reduced | apoptosis rate (PC-9-OR cells [8]): around 80%; apoptosis rate [9]: around 80%
CCS(=O)(=O)n1cc(-c2nc(Nc3ccc(N4CCC(N5CCN(C)CC5)CC4)c(OC(C)C)c3)ncc2Cl)c2ccccc21 [HCD3514] | 480 nM | 520 nM | 490 nM | 1310 nM | 250 nM | 350 nM | 660 nM | decreased phosphorylation of EGFR and the downstream signaling phosphorylation of Erk level | 98.27% | potently and dose-dependently suppressed | apoptosis rate ([10]; 1 μM): 72.39%; IC50 (GSE-1 cells): 1040 nM; IC50 (EGFR^L858R/T790M): 4.9 nM; IC50 (EGFR^19del/T790M/C797S): 2 nM; selectivity over EGFR^WT (EGFR^WT [11]): more than 78 fold; IC50 (EGFR^WT [12]): 156 ± 6.9 nM; IC50 (EGFR^L858R/T790M/C797S): 1 nM; EGFR phosphorylation (Western blot) ([13]; BaF3-EGFR^L858R/T790M and BaF3-EGFR^19del/T790M cells): dose-dependently suppressed; expression of phospho-EGFR (Western blot) ([13]; NCI-H1975 cells): down-regulated; IC50 (EGFR^19del/T790M): 8.9 nM; IC50 (MRC-9 cells): 1030 nM; expression of cleaved caspase-3 and cleaved PARP (Western blot) [14]: dose-dependently up-regulated; tumor growth inhibition (TGI) ([7]; 50 mg/kg, oral, once a day, BALB/c nude mice): 22.53%; tumor growth inhibition (TGI) ([7]; 75 mg/kg, oral, once a day, BALB/c nude mice): 37.73%; tolerability, body weight throughout the study ([7]; 50 and 75 mg/kg, oral, once a day, BALB/c nude mice): well-tolerated, with body weight maintained throughout the study; tumor weight ([7]; 50 and 75 mg/kg, tumors harvested 2 h after last oral administration): reduced with the increased concentration
